Assay [1] concerns CHEAL. Put plainly: Greenhouse pre-emergence residual test (Example 73). Type of assay: in vivo, Chenopodium album. The settings on record: Chenopodium album, pre-emergence; Dose 90 g a.i./ha; 17-21 DAT; read-out: Pre-emergence percent weed growth and germination inhibition CHEAL. The protocol: (§1) Compound 1 was tested at several doses for residual weed control efficacy by itself or in combination as a tank mix with commercial herbicides. The following commercial products were used in tank mix with a 10% active emulsifiable concentrate formulation of Compound 1: S-metolachlor (Dual Magnum®, Syngenta), mesotrione (Callisto®, Syngenta), pyroxasulfone (Zidua® SC, BASF), metribuzin (Tricor DF™, United Phosphorus, Inc).
(§2) Accordingly, weed seeds were planted in 2-inch pots containing custom field soil mix (sandy loam with 3.3% organic matter, pH 7.0) and covered with a fine layer of the same soil. Three replicate pots were treated with each compound. Treatment consisting of the above formulation excluding active compound was applied as a treatment control (TC). Pots were treated with the test compound solution in a laboratory spray chamber fitted with 8003 even fan nozzles calibrated to deliver 187-200 L ha^−1 at 269 kPa. All treatments included the following inert ingredients in the final formulation; 1% Crop Oil Concentrate (v/v) (AGRI-DEX, Helena Agri) and 2.5% Ammonium sulphate (w/v). Compound 1 was incorporated into the soil by simulating rainfall equivalent to 0.2 mm using the same track sprayer. Subsequently, pots were irrigated from the bottom until weed control evaluation. Pots were placed back in the greenhouse and evaluated for percentage visual growth and germination inhibition compared to TC 17-21 days after treatment (DAT). Complete growth inhibition is represented by 100%.

The subject of another assay is ALOMY. The assay is described as above. Type of assay: in vivo, Alopecurus myosuroides. The settings on record: Alopecurus myosuroides, pre-emergence; Dose 90 g a.i./ha; 17-21 DAT; read-out: Pre-emergence percent weed growth and germination inhibition ALOMY. The protocol:
as §1, §2

Assay [2] deals with DIGSA. Described as above. Type of assay: in vivo, Digitaria sanguinalis. As to conditions: Digitaria sanguinalis, pre-emergence; Dose 90 g a.i./ha; 17-21 DAT; read-out: Pre-emergence percent weed growth and germination inhibition DIGSA. The protocol: as §1, §2
The test system of assay [3] is CHEAL. The assay is described as follows: Field test, soil residual activity on bare soil (Example 71). The class given is in vivo. The settings on record: Chenopodium album, 1008 h, Loc 6, pyroxasulfone 90 g a.i./ha, 6 weeks after application, read-out: % growth inhibition CHEAL. The protocol:
(§3) Compound 1 and Compound 1 mixed with pyroxasulfone were tested at different field locations to evaluate the herbicides efficacy for controlling weeds by soil residual activity. All herbicide treatments were applied with a backpack CO2 pressurized sprayer at 190 L/ha volume. The herbicide applications were made to bare soil free of any vegetation to assess the efficacy of the different herbicides to suppress weeds germination and development. The herbicide treatments included Compound 1 formulated as 10% emulsified concentrate, pyroxasulfone as a commercial formulation (ZIDUA SC, BASF), or a mixture of Compound 1 and pyroxasulfone products prepared as a “tank-mix” before the field application. All herbicide field spray solution included ammonium sulfate final solution concentration of 2%. Different weeds species were assessed at the separate field locations. For each species, the herbicide efficacy to control weeds, assessed as % of suppressed weeds plants relative to the untreated control plots, was evaluated at 6 weeks after the herbicide application.

The next assay relates to SETFA. Described as above. Type of assay: in vivo. As to conditions: Setaria faberi, 1008 h, Loc 4, pyroxasulfone 90 g a.i./ha, 6 weeks after application, read-out: % growth inhibition SETFA. The protocol: as §3
For assay [4], the system named is DIGSA. The description is as above. The settings on record: Digitaria sanguinalis, 1008 h, Loc 5, pyroxasulfone 90 g a.i./ha, 6 weeks after application, read-out: % growth inhibition DIGSA. The class given is in vivo. The protocol:
as §3

For a further assay, the system named is ABUTH. Described as above. The class given is in vivo. As to conditions: Abutilon theophrasti, 1008 h, 6 weeks after application, read-out: % growth inhibition ABUTH. The protocol: as §3
Assay [5] relates to AMAPA. The assay is described as above. The settings on record: Amaranthus palmeri, 1008 h, 6 weeks after application, read-out: % growth inhibition AMAPA. Type of assay: in vivo. The protocol:
as §3

A further assay deals with KCHSC. Put plainly: Greenhouse pre-emergence residual test (Example 73). The class given is in vivo, Bassia scoparia. The settings on record: Bassia scoparia, pre-emergence; Dose 90 g a.i./ha; 17-21 DAT; read-out: Pre-emergence percent weed growth and germination inhibition KCHSC. The protocol:
as §1, §2

Assay [6] relates to AMATU. Described as above. The class given is in vivo, Amaranthus rudis. As to conditions: Amaranthus tuberculatus, pre-emergence; Dose 90 g a.i./ha; 17-21 DAT; read-out: Pre-emergence percent weed growth and germination inhibition AMATU. The protocol:
as §1, §2

The subject of assay [7] is AMAPA. The description is as above. Type of assay: in vivo, Amaranthus palmeri. The settings on record: Amaranthus palmeri, pre-emergence; Dose 90 g a.i./ha; 17-21 DAT; read-out: Pre-emergence percent weed growth and germination inhibition AMAPA. The protocol:
as §1, §2

A further assay concerns ECHCG. The assay is described as above. The class given is in vivo, Echinochloa crus-galli. As to conditions: Echinochloa crus-galli, pre-emergence; Dose 90 g a.i./ha; 17-21 DAT; read-out: Pre-emergence percent weed growth and germination inhibition ECHCG. The protocol: as §1, §2
Assay [8] deals with AMATU. Put plainly: Field test, soil residual activity on bare soil (Example 71). Type of assay: in vivo, Amaranthus rudis. As to conditions: Amaranthus tuberculatus, 1008 h, 6 weeks after application, read-out: % growth inhibition AMATU. The protocol:
as §3

Where [9] appears, read: Loc 3, pyroxasulfone 90 g a.i./ha.

The structures appear in SMILES notation. Where two headings read alike, the source gives them in different places.

As usually defined, the inhibition is the percentage by which the read-out fell short of the control. `Cn1nc(C(F)(F)F)c(CS(=O)(=O)C2=NOC(C)(C)C2)c1OC(F)F` [pyroxasulfone]: the inhibition at 90 g/ha in the assay on CHEAL [1] turned out to be 100%; in the assay with ALOMY, 47%; in the assay on DIGSA [2], 78%; in the assay on CHEAL [3], 88%; in the assay with SETFA it was 77%; with DIGSA [4], 74%. Further, the inhibition at 90 g/ha with ABUTH (setting [9]) was 44%; in the assay with ABUTH (Loc 4, pyroxasulfone 90 g a.i./ha), 60%; in the assay on ABUTH (Loc 6, pyroxasulfone 90 g a.i./ha), 50%; in the assay with AMAPA [5] (setting [9]), 34%; with AMAPA [5] (Loc 5, pyroxasulfone 90 g a.i./ha), 75%; in the assay with KCHSC, 80%. The inhibition at 90 g/ha in the assay with AMATU [6] came to 83%; in the assay with AMAPA [7] it was 73%; in the assay on ECHCG, 100%; in the assay with AMATU [8] (Loc 1, pyroxasulfone 90 g a.i./ha), 97%; with AMATU [8] (Loc 2, pyroxasulfone 90 g a.i./ha), 74%.

For the origin of these results see patent publication US20260256143A1, “HERBICIDAL COMPOSITION AND METHOD FOR CONTROLLING WEEDS” (Enko Chem, Inc., priority 2023, published 2026).
